Biological target: T1, Activated human C1s (Homo sapiens, UniProt P09871)
T1 construct: purchased Calbiochem (La Jolla, Calif.)
T1 sequence (P09871 438-688 limits assumed): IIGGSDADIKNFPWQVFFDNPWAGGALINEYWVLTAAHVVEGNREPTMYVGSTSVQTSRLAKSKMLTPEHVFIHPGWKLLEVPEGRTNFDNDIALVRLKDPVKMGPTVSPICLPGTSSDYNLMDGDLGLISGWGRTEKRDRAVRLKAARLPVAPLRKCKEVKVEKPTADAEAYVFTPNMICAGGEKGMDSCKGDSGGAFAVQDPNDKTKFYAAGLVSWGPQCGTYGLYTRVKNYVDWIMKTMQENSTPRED
T1 sequence (P09871 16-437 partner limits assumed): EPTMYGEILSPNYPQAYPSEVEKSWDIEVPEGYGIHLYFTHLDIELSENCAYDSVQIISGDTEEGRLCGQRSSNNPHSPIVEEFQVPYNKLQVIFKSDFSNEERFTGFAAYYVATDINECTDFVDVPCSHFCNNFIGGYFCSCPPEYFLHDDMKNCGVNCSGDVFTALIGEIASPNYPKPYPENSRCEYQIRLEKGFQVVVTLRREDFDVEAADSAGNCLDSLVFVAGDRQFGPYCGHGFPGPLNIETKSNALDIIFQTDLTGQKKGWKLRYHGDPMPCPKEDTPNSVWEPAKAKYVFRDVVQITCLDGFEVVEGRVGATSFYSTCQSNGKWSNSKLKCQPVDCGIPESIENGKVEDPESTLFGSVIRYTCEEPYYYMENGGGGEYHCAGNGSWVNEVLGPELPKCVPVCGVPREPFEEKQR
Experiment: In vitro inhibition of C1s (Ki determination, C1s-catalyzed hydrolysis of Z-Gly-Arg-S-Bzl, DTNB readout)
Format: biochemical
Conditions: substrate Z-Gly-Arg-S-Bzl 45 μM, DTNB 200 μM, C1s 2.3 nM, pH 7.5, 37° C., absorbance at 405 nm
Description: Reagents: All buffer salts were obtained from Sigma Chemical Company (St. Louis, Mo.), and were of the highest purity available. DTNB was purchased from Pierce (Rockford, Ill.). Z-Gly-Arg-S-Bzl was purchased from Enzyme Systems Products (Livermore, Calif.). Activated human C1s was purchased from Calbiochem (La Jolla, Calif.).
Test compounds are prepared as a 10 μM solution in DMSO. Dilutions are prepared in DMSO yielding 7 final concentrations encompassing a 700-fold concentration range.
Reactions were initiated by the addition of a 10 μL aliquot of the enzyme, and the absorbance increase at 405 nm is continuously recorded for 15 minutes in a Molecular Devices plate reader. Final DMSO concentration was 4.3%. […] The ratio of the velocity (rate of change in absorbance as a function of time) for a sample containing no test compound is divided by the velocity of a sample containing test compound, and is plotted as a function of test compound concentration. The data are fit to a linear regression, and the value of the slope of the line calculated. The inverse of the slope is the experimentally determined Ki value.

Ki, 0.006 to 0.023 µM:
CSc1sc(C(=N)N)cc1S(=O)(=O)c1cccc(-c2cnc3ccccc3c2)c1 [Example 73, 5-Methylsulfanyl-4-(3-quinolin-3-yl-benzenesulfonyl)-thiophene-2-carboxamidine]
COC(=O)c1ccc(-c2cccc(S(=O)(=O)c3cc(C(=N)N)sc3SC)c2)cc1 [Example 74, 3′-(5-Carbamimidoyl-2-methylsulfanyl-thiophene-3-sulfonyl)-biphenyl-4-carboxylic acid methyl ester]
CSc1sc(C(=N)N)cc1S(=O)(=O)c1cccc(-c2cc(C)cc(C)c2)c1 [Example 75, 4-(3′,5′-Dimethyl-biphenyl-3-sulfonyl)-5-methylsulfanyl-thiophene-2-carboxamidine]
CSc1sc(C(=N)N)cc1S(=O)(=O)c1cccc(-c2ccco2)c1 [Example 76, 4-(3-Furan-2-yl-benzenesulfonyl)-5-methylsulfanyl-thiophene-2-carboxamidine]
CSc1sc(C(=N)N)cc1S(=O)(=O)c1cccc(-c2cccc([N+](=O)[O-])c2)c1 [Example 78, 5-Methylsulfanyl-4-(3′-nitro-biphenyl-3-sulfonyl)-thiophene-2-carboxamidine]
CSc1sc(C(=N)N)cc1S(=O)(=O)c1cccc(-c2ccc(O)cc2)c1 [Example 79, 4-(4′-Hydroxy-biphenyl-3-sulfonyl)-5-methylsulfanyl-thiophene-2-carboxamidine]
CSc1sc(C(=N)N)cc1S(=O)(=O)c1cccc(-c2ccc(C=O)cc2)c1 [Example 80, 4-(4′-Formyl-biphenyl-3-sulfonyl)-5-methylsulfanyl-thiophene-2-carboxamidine]
CSc1sc(C(=N)N)cc1S(=O)(=O)c1cccc(-c2ccc(F)cc2)c1 [Example 81, 4-(4′-Fluoro-biphenyl-3-sulfonyl)-5-methylsulfanyl-thiophene-2-carboxamidine]
CSc1sc(C(=N)N)cc1S(=O)(=O)c1cccc(-c2ccc(-c3ccccc3)c(F)c2)c1 [Example 82, 4-(2′-Fluoro-[1,1′;4′,1″]terphenyl-3″-sulfonyl)-5-methylsulfanyl-thiophene-2-carboxamidine]
CSc1sc(C(=N)N)cc1S(=O)(=O)c1cccc(-c2ccc(CO)cc2)c1 [Example 83, 4-(4′-hydroxymethyl-biphenyl-3-sulfonyl)-5-methylsulfanyl-thiophene-2-carboxamidine]
CSc1sc(C(=N)N)cc1S(=O)(=O)c1cccc(-c2ccc(C#N)cc2)c1 [Example 84, 4-(4′-cyano-biphenyl-3-sulfonyl)-5-methylsulfanyl-thiophene-2-carboxamidine]
CSc1sc(C(=N)N)cc1S(=O)(=O)c1cccc(-c2ccc(C(C)=O)cc2)c1 [Example 85, 4-(4′-acetyl-biphenyl-3-sulfonyl)-5-methylsulfanyl-thiophene-2-carboxamidine]
CSc1sc(C(=N)N)cc1S(=O)(=O)c1cccc(-c2ccc(N(C)C)cc2)c1 [Example 86, 4-(4′-dimethylamino-biphenyl-3-sulfonyl)-5-methylsulfanyl-thiophene-2-carboxamidine]
C=Cc1ccccc1-c1cccc(S(=O)(=O)c2cc(C(=N)N)sc2SC)c1 [Example 87, 5-methylsulfanyl-4-(2′-vinyl-biphenyl-3-sulfonyl)-thiophene-2-carboxamidine]
CCOc1ccc(-c2cccc(S(=O)(=O)c3cc(C(=N)N)sc3SC)c2)cc1 [Example 88, 4-(4′-ethoxy-biphenyl-3-sulfonyl)-5-methylsulfanyl-thiophene-2-carboxamidine]
CSc1sc(C(=N)N)cc1S(=O)(=O)c1cccc(-c2c(C)noc2C)c1 [Example 89, 4-[3-(3,5-dimethyl-isoxazol-4-yl)-benzenesulfonyl]-5-methylsulfanyl-thiophene-2-carboxamidine]
